Earlier results in patent US10308937B2, “Combination long acting compositions and methods for Hepatitis C” (GlaxoSmithKline Intellectual Property (No. 2) Limited, priority 2014, dated 2019).

Settings: patients treated at currently recommended doses

Q: Which “patients with significant hemolysis” value does the source give for NC(=O)c1ncn([C@@H]2O[C@H](CO)[C@@H](O)[C@H]2O)n1 [Ribavirin] here?
A: 10-20 % of patients
